These results are taken from US20080274208A1, “Water treatment containing DBNPA for use in sanitizing recreational water” (priority 2007, published 2008).

In assay [1] the test system is eight species of bacteria and four species of fungi typically found in swimming pool water. The assay can be described thus: Model swimming pool recirculating sand filter system: water clarity (turbidity) under daily microbial challenge. Type of assay: cell-based. Particulars: Table 1; synthetic pool water 80-90° F, daily inoculation and bather load; DBNPA 2 ppm daily; H2O2 27.5 ppm start, 7 ppm weekly; potassium monopersulfate 12 ppm initial and weekly; PHMB 6 ppm; 88 day test.
Description: The purpose of this experiment is to evaluate the robustness or the ability of single or combinations of biocides (plus additionally any other permutations of oxidizers and/or adjuvants) to prevent inoculated microorganisms from establishing colonies in the water and sand filter media, thus preventing bio-fouling of the system.
800 ml of synthetic swimming pool water (water containing calcium chloride dihydrate and sodium hydrogen carbonate solution at neutral pH) was pumped through a body of swimming pool filter sand by means of a peristaltic pump. The water temperature of each system was maintained in the range of 80-90° F. The biocide 2,2-dibromo-3-nitrilopropionamide (DBNPA) was added daily at a concentration of 2 ppm. When required, oxidizer hydrogen peroxide was added at a concentration of 27.5 ppm at the start of experiment, and 7 ppm weekly thereafter, and the loss of hydrogen peroxide in each system is monitored by calorimetric assay. […]
Model water turbidity was measured on a daily basis) using a Hach 2100P turbidimeter to measure water sample nephelometric turbidity units (NTUs). […]
The performance of the candidate treatment regimens was determined by the number of days the water clarity was maintained below 1.0 NTU (Nephelometric Turbidity Units). […]

Assay [2] concerns eight species of bacteria typically found in swimming pool water. The assay can be described thus: Model swimming pool system: viable bacteria by agar plate counts (CLED agar). Type of assay: cell-based, Alcaligenes, Chryseobacterium and Sphingomonas. Particulars: Table 1; upon exceeding turbidity threshold (or at test end); DBNPA 2 ppm daily with/without oxidizer; PHMB 6 ppm. How it is done:
(§1) The synthetic swimming pool water samples dosed with combinations of DBNPA, hydrogen peroxide, potassium monopersulfate and/or DDAC were compared to the performance of the commercially available Baquacil® swimming pool chemical treatment system (available commercially from Arch Chemicals, Inc., Norwalk, Conn.). […] PHMB), by addition of daily or weekly doses of the biocide. Hydrogen peroxide is added monthly at a concentration of 27.5 ppm. The samples were challenged on a daily basis with eight species of bacteria and four species of fungi typically found in swimming pool water. These microorganisms include species of the fungi Paecilomyces and Trichoderma, and species of the bacteria Alcaligenes, Chryseobacterium and Sphingomonas. Each inoculation represents a total addition of 0.8×10^6 microorganisms per model apparatus. In addition, 5 ml of synthetic bather load is added to the system on a daily basis, as a nutrient source for the microorganisms present in the system. The bather load consists of carbon, nitrogen and macro/micro nutrient sources such as urea, albumin, creatinine, lactic acid, uric acid, glucuronic acid, sodium chloride, sodium sulfate, ammonium chloride, sodium bicarbonate, potassium phosphate potassium sulfate. The total number of viable bacteria and fungi present in each sample was determined weekly by conducting agar plate counts. […]

In assay [3] the test system is four species of fungi typically found in swimming pool water. The assay can be described thus: Model swimming pool system: viable fungi by agar plate counts (Sabaroud-Dextrose agar). Type of assay: cell-based, Paecilomyces and Trichoderma. The note with it: Table 1; upon exceeding turbidity threshold (or at test end); DBNPA 2 ppm daily with/without oxidizer; PHMB 6 ppm. How it is done:
as §1

As for `N#CC(Br)(Br)C(N)=O` [DBNPA, 2,2-dibromo-3-nitrilopropionamide], in assay [1], the “Number of Days of Clarity below 1.0 NTU” value is listed as 59 days. In addition, the “Bacterial Counts at Clarity of 1.0 NTU or above” value in assay [2] was 1.39 × 10^5 CFU/ml. Further, the “Fungal Counts at Clarity of 1.0 NTU or above” value in assay [3] is 5 × 10^0 CFU/ml.
